# What was measured:
# Type in all cases: cell-based, human
# MCF-7 cells [1] = assay: Soft agar colony formation by MCF-7 cells with synthetic peptide added; settings: after ten days, peptide replenished with every addition of medium
# Method: To assess effect on soft agar colony formation, 5×10^5 MCF-7 cells per 60-mm dish were plated in triplicates with a top layer of 0.3% agar (BACTO Agar, Difco, Detroit Mich.) and a bottom layer of 0.5% agar (both in a-MEM). Peptide SEQ ID NO: 37 was added at the indicated concentrations upon plating and was replenished with every addition of medium. Every other day, 0.4 ml of medium was supplemented. After ten days, photographs were taken at high and low magnification and the surface area of all clones in five fields was measured with the imaging software ImageJ (NIH) or Metamorph.
# (§1) 5×10^5 MCF-7 cells per 60-mm dish were plated in triplicates with a top layer of 0.3% agar (BACTO Agar, Difco, Detroit, Mich.) and a bottom layer of 0.5% agar (both in α-MEM). Peptide was added at the indicated concentrations upon plating and was replenished with every addition of medium. For the investigation of cell growth rates, MCF-7 cells were plated at 5000 cells/well in 24-well plates in the presence or absence of peptide. Effects of a synthetic peptide on MDA-MB-435 cells are shown in FIG. 9C after 10 days in the presence or absence of synthetic peptides. hOPN Exon-5 peptide (NAVSSEETNDFKQE) SEQ ID NO: 34 and scrambled hOPN-c peptide (SSEEQETGVEKASSNS) SEQ ID NO: 33 served as non-specific controls.
# MCF-7 cells [2] = assay: Cell growth rate of MCF-7 cells in 24-well plates with or without peptide; settings: 5000 cells/well, daily cell counts
# Method: Two control peptides (hOPN-c scrambled sequence SEQ ID NO: 33 and hOPN-exon5 SEQ ID NO: 34) had no effect (data not shown). […] For investigation of cell growth rates, MCF-7 cells were plated at 5000 cells/well in 24-well plates in the presence or absence of peptide. Daily, five wells per group were harvested by trypsinization and the cell numbers were determined in a Coulter™ Z-Series Counter.
# as §1
# MCF-7 cells [3] = assay: Adhesion of MCF-7 cells to coated wells; settings: 2 hours at 37° C., 96-well plate coated overnight
# Method: 96-well polystyrene plates were coated with the indicated amounts of GST-OPN forms or control fibronectin ([…]) in […] at 4° C. overnight. The wells were washed twice with cold PBS followed by blocking with 1% BSA for 1 h at 37° C. MCF-7 parental cells were used to assay adhesion. Cells were trypsinized and treated with soybean trypsin inhibitor, then washed twice with PBS and resuspended in adhesion buffer (0.1% BSA, 1 mM sodium pyruvate, 2 mM MgCl2). Cells (2×10^4 cell/well) were added to the above 96-well plates and allowed to adhere at 37° C. for two hours. Non-adherent cells were removed by rinsing twice with PBS. Adherent cells were counted and photographed. For adhesion to aggregated OPN, 1 μg of GST or GST-OPN forms were added to 96-well plated in aggregation buffer (0.2 M NaCl, 0.05 M Tris-HCl, pH 7.6, 5 mM CaCl2 final concentration) and incubated at 4° C. overnight. All adhesion assays were performed with triplicate wells and were repeated at least three times.
# Stably transfected cells were plated at 5000 cells/well (24-well plate) on day 0. On every consecutive day, five wells per cell line were harvested and the total number of cells was counted. […] Aggregation was assessed after 16 hours at increasing calcium concentrations. Consecutively denaturing, non-reducing SDS-PAGE and Western blotting for OPN was performed. […]
Substance,size of the clones formed in soft agar (MCF-7 cells [1]),cell growth (MCF-7 cells [2]),cell spreading of adhered cells on coated plastic (MCF-7 cells [3])
Ac-SGSSEEKQNAVSSEET-NH2 [SEQ ID NO: 37],increasing the size of the clones formed in soft agar,no effect on cell growth,
"NAVSSEETNDFKQE (Control peptide derived from Exon 5) [SEQ ID NO: 34, hOPN Exon-5 peptide, non-specific control, reference compound]",no effect,,
"SGSSEEKQNAVSSEET (Peptide representing a domain encompassing the splice junction of Exon 3 and 5) [SEQ ID NO: 8, OPNc peptide, domain around the splice junction of OPN variant-c]",enhanced soft agar clone formation,did not support the growth of cells in plastic dishes,
"SSEEQETGVEKASSNS (Control peptide for OPNcPEP) [SEQ ID NO: 33, scrambled hOPN-c peptide, non-specific control, reference compound]",no effect,,
fibronectin,,,cell spreading

# — US8969020B2, “Peptide sequence that promotes tumor invasion” (MetaMol Theranostics LLC, priority 2005, dated 2015)
